# Experimental data: ChEMBL document CHEMBL1145498, “A systematic interaction map of validated kinase inhibitors with Ser/Thr kinases” (Proc Natl Acad Sci U S A, 2007)
# Target: T1, Calcium/calmodulin-dependent protein kinase type IV (Homo sapiens) (UniProt Q16566)
# T1 sequence (whole entry): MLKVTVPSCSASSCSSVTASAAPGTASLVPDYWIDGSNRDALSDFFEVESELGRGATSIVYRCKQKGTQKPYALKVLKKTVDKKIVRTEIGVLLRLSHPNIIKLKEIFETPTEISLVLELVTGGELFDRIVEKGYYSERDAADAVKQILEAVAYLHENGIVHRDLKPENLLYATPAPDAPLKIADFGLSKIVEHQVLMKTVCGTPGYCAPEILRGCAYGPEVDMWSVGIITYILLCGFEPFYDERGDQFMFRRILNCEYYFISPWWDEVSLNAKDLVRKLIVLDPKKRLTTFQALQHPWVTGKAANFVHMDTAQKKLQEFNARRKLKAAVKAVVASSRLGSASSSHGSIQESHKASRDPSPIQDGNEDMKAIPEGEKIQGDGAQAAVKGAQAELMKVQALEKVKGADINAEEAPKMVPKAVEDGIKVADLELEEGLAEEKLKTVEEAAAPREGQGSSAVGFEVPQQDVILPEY
row,SMILES,ΔTm
1,Cc1nc2sccn2c(=O)c1CCN1CCC(=C(c2ccccc2)c2ccc(F)cc2)CC1,-0.2 °C
2,N#C/C(=C(/N)Sc1ccc(N)cc1)c1ccccc1C(F)(F)F,0.5 °C
3,CN(C)c1ncnc2nc[nH]c12 [DIMETHYLADENINE],0.1 °C
4,COc1ccc(S(=O)(=O)N(CCO)c2ccccc2CN(C)C/C=C/c2ccc(Cl)cc2)cc1,-0.3 °C
5,NCCNS(=O)(=O)c1cccc2c(Cl)cccc12,-0.1 °C
6,O=C1Nc2ccccc2/C1=C/c1cnc[nH]1,0.7 °C

# Target: Cyclin-dependent kinase 2 (Homo sapiens, UniProt P24941)
row,SMILES,ΔTm
1,Cc1nc2sccn2c(=O)c1CCN1CCC(=C(c2ccccc2)c2ccc(F)cc2)CC1,1.2 °C
2,N#C/C(=C(/N)Sc1ccc(N)cc1)c1ccccc1C(F)(F)F,0.4 °C
3,CN(C)c1ncnc2nc[nH]c12 [DIMETHYLADENINE],0.3 °C
4,COc1ccc(S(=O)(=O)N(CCO)c2ccccc2CN(C)C/C=C/c2ccc(Cl)cc2)cc1,0 °C
5,NCCNS(=O)(=O)c1cccc2c(Cl)cccc12,0.1 °C
6,O=C1Nc2ccccc2/C1=C/c1cnc[nH]1,6.6 °C

# Target: Casein kinase I isoform gamma-2 (Homo sapiens) (UniProt P78368)
# Sequence (P78368 whole entry, looked up, canonical isoform): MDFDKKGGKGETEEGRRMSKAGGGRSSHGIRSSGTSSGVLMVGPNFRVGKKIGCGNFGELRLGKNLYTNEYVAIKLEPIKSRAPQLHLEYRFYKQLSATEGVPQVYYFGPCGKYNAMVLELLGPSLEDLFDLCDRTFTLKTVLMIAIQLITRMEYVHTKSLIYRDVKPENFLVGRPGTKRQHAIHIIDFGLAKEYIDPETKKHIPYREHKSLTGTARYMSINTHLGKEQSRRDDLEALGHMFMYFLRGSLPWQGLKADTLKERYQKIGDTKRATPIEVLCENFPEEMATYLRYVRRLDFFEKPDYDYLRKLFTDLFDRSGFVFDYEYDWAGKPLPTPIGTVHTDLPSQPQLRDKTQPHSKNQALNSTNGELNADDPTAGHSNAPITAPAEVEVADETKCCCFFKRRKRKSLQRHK
row,SMILES,ΔTm
1,Cc1nc2sccn2c(=O)c1CCN1CCC(=C(c2ccccc2)c2ccc(F)cc2)CC1,0.3 °C
2,N#C/C(=C(/N)Sc1ccc(N)cc1)c1ccccc1C(F)(F)F,0.3 °C
3,CN(C)c1ncnc2nc[nH]c12 [DIMETHYLADENINE],0.5 °C
4,COc1ccc(S(=O)(=O)N(CCO)c2ccccc2CN(C)C/C=C/c2ccc(Cl)cc2)cc1,0.3 °C
5,NCCNS(=O)(=O)c1cccc2c(Cl)cccc12,0 °C
6,O=C1Nc2ccccc2/C1=C/c1cnc[nH]1,1.6 °C

# Target: Serine/threonine-protein kinase PAK 4 (Homo sapiens) (UniProt O96013)
# Sequence (O96013 whole entry, looked up): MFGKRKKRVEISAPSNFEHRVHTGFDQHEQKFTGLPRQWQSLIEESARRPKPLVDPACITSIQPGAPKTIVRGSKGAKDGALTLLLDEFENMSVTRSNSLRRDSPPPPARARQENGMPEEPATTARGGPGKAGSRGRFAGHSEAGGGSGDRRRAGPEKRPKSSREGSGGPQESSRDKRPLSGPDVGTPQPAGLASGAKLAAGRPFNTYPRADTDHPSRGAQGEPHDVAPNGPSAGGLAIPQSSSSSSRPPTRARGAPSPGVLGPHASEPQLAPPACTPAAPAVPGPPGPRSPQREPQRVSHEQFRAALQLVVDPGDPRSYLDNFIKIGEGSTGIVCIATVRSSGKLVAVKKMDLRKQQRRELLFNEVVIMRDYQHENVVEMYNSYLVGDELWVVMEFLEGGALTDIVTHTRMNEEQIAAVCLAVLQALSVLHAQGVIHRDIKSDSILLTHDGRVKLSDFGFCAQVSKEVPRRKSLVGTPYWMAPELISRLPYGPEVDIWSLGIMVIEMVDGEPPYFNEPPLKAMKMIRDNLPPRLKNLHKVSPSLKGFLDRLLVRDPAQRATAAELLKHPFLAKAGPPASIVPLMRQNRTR
row,SMILES,ΔTm
1,Cc1nc2sccn2c(=O)c1CCN1CCC(=C(c2ccccc2)c2ccc(F)cc2)CC1,0.8 °C
2,N#C/C(=C(/N)Sc1ccc(N)cc1)c1ccccc1C(F)(F)F,1.3 °C
3,CN(C)c1ncnc2nc[nH]c12 [DIMETHYLADENINE],0.5 °C
4,COc1ccc(S(=O)(=O)N(CCO)c2ccccc2CN(C)C/C=C/c2ccc(Cl)cc2)cc1,-0.1 °C
5,NCCNS(=O)(=O)c1cccc2c(Cl)cccc12,0.5 °C
6,O=C1Nc2ccccc2/C1=C/c1cnc[nH]1,2.2 °C

# Target: Serine/threonine-protein kinase pim-3 (Homo sapiens) (UniProt Q86V86)
row,SMILES,ΔTm
1,Cc1nc2sccn2c(=O)c1CCN1CCC(=C(c2ccccc2)c2ccc(F)cc2)CC1,6.1 °C
2,N#C/C(=C(/N)Sc1ccc(N)cc1)c1ccccc1C(F)(F)F,0.8 °C
3,CN(C)c1ncnc2nc[nH]c12 [DIMETHYLADENINE],0.9 °C
4,COc1ccc(S(=O)(=O)N(CCO)c2ccccc2CN(C)C/C=C/c2ccc(Cl)cc2)cc1,0.5 °C
5,NCCNS(=O)(=O)c1cccc2c(Cl)cccc12,3.2 °C
6,O=C1Nc2ccccc2/C1=C/c1cnc[nH]1,3.3 °C

# Target: Serine/threonine-protein kinase RIO2 (Homo sapiens) (UniProt Q9BVS4)
# Sequence (Q9BVS4 whole entry, looked up): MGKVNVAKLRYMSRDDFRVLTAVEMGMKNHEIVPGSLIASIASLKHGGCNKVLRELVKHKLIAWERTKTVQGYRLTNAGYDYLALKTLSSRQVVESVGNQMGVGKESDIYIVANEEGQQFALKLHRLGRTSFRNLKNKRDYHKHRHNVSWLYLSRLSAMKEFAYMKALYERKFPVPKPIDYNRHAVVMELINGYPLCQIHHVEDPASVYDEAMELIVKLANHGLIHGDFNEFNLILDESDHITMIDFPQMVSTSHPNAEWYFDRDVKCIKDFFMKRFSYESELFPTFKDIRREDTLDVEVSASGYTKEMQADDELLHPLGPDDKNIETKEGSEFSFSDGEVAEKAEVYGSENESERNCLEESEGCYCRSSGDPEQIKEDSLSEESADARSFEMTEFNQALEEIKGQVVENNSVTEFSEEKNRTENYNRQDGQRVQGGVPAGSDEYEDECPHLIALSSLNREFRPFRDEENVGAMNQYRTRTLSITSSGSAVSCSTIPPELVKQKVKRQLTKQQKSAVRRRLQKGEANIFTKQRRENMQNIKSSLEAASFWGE
row,SMILES,ΔTm
1,Cc1nc2sccn2c(=O)c1CCN1CCC(=C(c2ccccc2)c2ccc(F)cc2)CC1,4.5 °C
2,N#C/C(=C(/N)Sc1ccc(N)cc1)c1ccccc1C(F)(F)F,-0.2 °C
3,CN(C)c1ncnc2nc[nH]c12 [DIMETHYLADENINE],0.1 °C
4,COc1ccc(S(=O)(=O)N(CCO)c2ccccc2CN(C)C/C=C/c2ccc(Cl)cc2)cc1,-0.4 °C
5,NCCNS(=O)(=O)c1cccc2c(Cl)cccc12,0.2 °C
6,O=C1Nc2ccccc2/C1=C/c1cnc[nH]1,1.3 °C

# Target: Ribosomal protein S6 kinase alpha-3 (Homo sapiens) (UniProt P51812)
# Sequence (P51812 whole entry): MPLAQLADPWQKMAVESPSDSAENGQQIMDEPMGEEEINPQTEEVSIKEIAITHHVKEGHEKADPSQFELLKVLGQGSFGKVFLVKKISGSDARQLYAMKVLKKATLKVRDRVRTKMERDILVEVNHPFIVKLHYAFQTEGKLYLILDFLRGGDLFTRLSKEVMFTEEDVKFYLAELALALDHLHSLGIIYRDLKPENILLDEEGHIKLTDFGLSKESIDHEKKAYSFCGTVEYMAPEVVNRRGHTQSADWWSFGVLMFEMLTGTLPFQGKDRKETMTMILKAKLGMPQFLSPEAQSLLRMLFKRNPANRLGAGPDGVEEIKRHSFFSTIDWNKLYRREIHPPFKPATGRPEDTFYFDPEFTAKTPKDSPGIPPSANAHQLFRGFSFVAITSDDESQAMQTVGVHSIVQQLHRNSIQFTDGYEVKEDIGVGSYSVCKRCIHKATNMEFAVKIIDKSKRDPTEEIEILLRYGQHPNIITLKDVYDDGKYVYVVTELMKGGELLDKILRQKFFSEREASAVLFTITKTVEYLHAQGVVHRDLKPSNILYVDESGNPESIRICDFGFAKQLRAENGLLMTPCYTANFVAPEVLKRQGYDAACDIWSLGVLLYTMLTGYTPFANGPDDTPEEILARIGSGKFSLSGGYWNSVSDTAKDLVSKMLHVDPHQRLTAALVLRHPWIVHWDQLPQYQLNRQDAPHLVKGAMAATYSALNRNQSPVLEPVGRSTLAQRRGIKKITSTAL
row,SMILES,ΔTm
1,Cc1nc2sccn2c(=O)c1CCN1CCC(=C(c2ccccc2)c2ccc(F)cc2)CC1,2.8 °C
2,N#C/C(=C(/N)Sc1ccc(N)cc1)c1ccccc1C(F)(F)F,0 °C
3,CN(C)c1ncnc2nc[nH]c12 [DIMETHYLADENINE],0.6 °C
4,COc1ccc(S(=O)(=O)N(CCO)c2ccccc2CN(C)C/C=C/c2ccc(Cl)cc2)cc1,-0.9 °C
5,NCCNS(=O)(=O)c1cccc2c(Cl)cccc12,0.5 °C
6,O=C1Nc2ccccc2/C1=C/c1cnc[nH]1,5.8 °C

# Target: Serine/threonine-protein kinase 16 (Homo sapiens) (UniProt O75716)
# Sequence (O75716 whole entry): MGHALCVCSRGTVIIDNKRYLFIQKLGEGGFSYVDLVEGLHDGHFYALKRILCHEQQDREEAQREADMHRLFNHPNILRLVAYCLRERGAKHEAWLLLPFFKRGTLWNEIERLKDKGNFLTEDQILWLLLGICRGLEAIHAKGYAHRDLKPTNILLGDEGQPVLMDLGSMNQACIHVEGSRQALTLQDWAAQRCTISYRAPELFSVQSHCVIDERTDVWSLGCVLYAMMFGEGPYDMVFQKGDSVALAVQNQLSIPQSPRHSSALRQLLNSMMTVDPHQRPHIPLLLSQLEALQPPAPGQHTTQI
row,SMILES,ΔTm
1,Cc1nc2sccn2c(=O)c1CCN1CCC(=C(c2ccccc2)c2ccc(F)cc2)CC1,3.1 °C
2,N#C/C(=C(/N)Sc1ccc(N)cc1)c1ccccc1C(F)(F)F,0.2 °C
3,CN(C)c1ncnc2nc[nH]c12 [DIMETHYLADENINE],0.5 °C
4,COc1ccc(S(=O)(=O)N(CCO)c2ccccc2CN(C)C/C=C/c2ccc(Cl)cc2)cc1,0.5 °C
5,NCCNS(=O)(=O)c1cccc2c(Cl)cccc12,0.2 °C
6,O=C1Nc2ccccc2/C1=C/c1cnc[nH]1,7.5 °C

# Target: T2, Serine/threonine-protein kinase 4 (Homo sapiens) (UniProt Q13043)
# T2 sequence (whole entry): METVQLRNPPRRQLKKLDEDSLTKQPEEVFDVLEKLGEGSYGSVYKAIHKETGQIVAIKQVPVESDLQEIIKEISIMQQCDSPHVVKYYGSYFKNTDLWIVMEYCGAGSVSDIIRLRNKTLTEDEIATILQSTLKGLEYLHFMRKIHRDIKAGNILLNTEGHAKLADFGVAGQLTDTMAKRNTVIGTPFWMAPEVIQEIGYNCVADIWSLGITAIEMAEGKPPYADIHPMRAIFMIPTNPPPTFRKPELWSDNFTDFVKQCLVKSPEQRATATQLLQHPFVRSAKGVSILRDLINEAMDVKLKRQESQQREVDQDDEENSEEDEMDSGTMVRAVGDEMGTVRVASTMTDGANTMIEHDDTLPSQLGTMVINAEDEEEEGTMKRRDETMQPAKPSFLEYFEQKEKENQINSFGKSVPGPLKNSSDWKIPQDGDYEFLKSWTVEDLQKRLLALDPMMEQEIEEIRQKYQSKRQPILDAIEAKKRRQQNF
row,SMILES,ΔTm
1,Cc1nc2sccn2c(=O)c1CCN1CCC(=C(c2ccccc2)c2ccc(F)cc2)CC1,3.6 °C
2,N#C/C(=C(/N)Sc1ccc(N)cc1)c1ccccc1C(F)(F)F,0.8 °C
3,CN(C)c1ncnc2nc[nH]c12 [DIMETHYLADENINE],1.1 °C
4,COc1ccc(S(=O)(=O)N(CCO)c2ccccc2CN(C)C/C=C/c2ccc(Cl)cc2)cc1,-0.2 °C
5,NCCNS(=O)(=O)c1cccc2c(Cl)cccc12,0.4 °C
6,O=C1Nc2ccccc2/C1=C/c1cnc[nH]1,8.4 °C

# Target: T3, Lymphokine-activated killer T-cell-originated protein kinase (Homo sapiens) (UniProt Q96KB5)
# T3 sequence (whole entry): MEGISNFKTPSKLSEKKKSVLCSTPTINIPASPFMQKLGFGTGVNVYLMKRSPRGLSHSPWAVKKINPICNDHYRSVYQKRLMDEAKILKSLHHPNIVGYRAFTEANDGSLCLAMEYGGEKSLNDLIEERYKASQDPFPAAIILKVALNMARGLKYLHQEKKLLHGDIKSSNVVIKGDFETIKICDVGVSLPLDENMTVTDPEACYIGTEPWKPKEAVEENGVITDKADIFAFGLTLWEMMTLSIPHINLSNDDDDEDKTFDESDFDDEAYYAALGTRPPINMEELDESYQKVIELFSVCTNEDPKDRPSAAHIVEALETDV
row,SMILES,ΔTm
1,Cc1nc2sccn2c(=O)c1CCN1CCC(=C(c2ccccc2)c2ccc(F)cc2)CC1,-0.5 °C
2,N#C/C(=C(/N)Sc1ccc(N)cc1)c1ccccc1C(F)(F)F,-0.4 °C
3,CN(C)c1ncnc2nc[nH]c12 [DIMETHYLADENINE],0.5 °C
4,COc1ccc(S(=O)(=O)N(CCO)c2ccccc2CN(C)C/C=C/c2ccc(Cl)cc2)cc1,-0.1 °C
5,NCCNS(=O)(=O)c1cccc2c(Cl)cccc12,-0.2 °C
6,O=C1Nc2ccccc2/C1=C/c1cnc[nH]1,0.1 °C

# Target: Serine/threonine-protein kinase VRK2 (Homo sapiens) (UniProt Q86Y07)
# Sequence (Q86Y07 whole entry): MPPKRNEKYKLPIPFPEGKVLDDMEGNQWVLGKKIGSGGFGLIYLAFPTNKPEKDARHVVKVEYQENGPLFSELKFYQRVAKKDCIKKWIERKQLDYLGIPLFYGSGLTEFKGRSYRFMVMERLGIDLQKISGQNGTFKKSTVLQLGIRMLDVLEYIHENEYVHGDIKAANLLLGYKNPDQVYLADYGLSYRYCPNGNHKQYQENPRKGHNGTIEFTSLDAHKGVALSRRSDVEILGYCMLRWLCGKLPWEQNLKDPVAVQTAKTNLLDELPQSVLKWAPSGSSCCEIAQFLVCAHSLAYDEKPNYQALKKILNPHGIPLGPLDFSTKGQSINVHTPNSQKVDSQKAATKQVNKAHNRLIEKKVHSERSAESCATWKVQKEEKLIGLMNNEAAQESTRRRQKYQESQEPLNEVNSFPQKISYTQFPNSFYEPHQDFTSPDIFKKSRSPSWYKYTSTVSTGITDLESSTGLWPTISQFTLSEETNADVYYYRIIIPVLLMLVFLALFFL
row,SMILES,ΔTm
1,Cc1nc2sccn2c(=O)c1CCN1CCC(=C(c2ccccc2)c2ccc(F)cc2)CC1,0.2 °C
2,N#C/C(=C(/N)Sc1ccc(N)cc1)c1ccccc1C(F)(F)F,0.1 °C
3,CN(C)c1ncnc2nc[nH]c12 [DIMETHYLADENINE],0 °C
4,COc1ccc(S(=O)(=O)N(CCO)c2ccccc2CN(C)C/C=C/c2ccc(Cl)cc2)cc1,-0.3 °C
5,NCCNS(=O)(=O)c1cccc2c(Cl)cccc12,0.1 °C
6,O=C1Nc2ccccc2/C1=C/c1cnc[nH]1,2.1 °C
